8 molecules from PMC8745314, “Novel Tetrazole-Based Antimicrobial Agents Targeting Clinical Bacteria Strains: Exploring the Inhibition of Staphylococcus aureus DNA Topoisomerase IV and Gyrase” (International Journal of Molecular Sciences, 2021) can be followed below.

Values after ≈ are worked out from the molar mass of the structure shown. Read-outs that look alike come from different tables or passages of the source.

Assay type in all cases: cell-based
Assay [1] has as its system clinical strains (S. aureus, S. epidermidis, E. coli, K. pneumoniae, P. aeruginosa). The assay is described as follows: MIC ranges over the panel of clinical strains. The protocol:
In the next stage of the experiment, 8 of 11 compounds were selected for a clinical strain activity evaluation against S. aureus, S. epidermidis, E. coli, K. pneumoniae, and P. aeruginosa. […] Additionally, all three inhibited the growth of all clinical Staphylococci panels: S. aureus (T5592; T5591) and S. epidermidis (5253; 4243) with MIC values of 0.8 μg/mL.
(§1) The antimicrobial assays were conducted using reference strains of bacteria derived from international microbe collections: American Type Culture Collection (ATCC) and National Collection of Type Culture (NCTC). The following standard strains of bacteria were used: Gram-positive—Staphylococcus aureus NCTC 4163, Staphylococcus aureus ATCC 25923, Staphylococcus aureus ATCC 6538, Staphylococcus aureus ATCC 29213, Staphylococcus epidermidis ATCC 12228, Staphylococcus epidermidis ATCC 35984, Gram-negative: Escherichia coli ATCC 25922, Pseudomonas aeruginosa ATCC 15442. Clinical strains of bacteria used in this study: Gram-positive: Staphylococcus epidermidis 5253, Staphylococcus epidermidis 4243, Staphylococcus aureus T5592, Staphylococcus aureus T5591 and Gram-negative: Escherichia coli 520, Escherichia coli 600, Klebsiella pneumoniae 510 and Pseudomonas aeruginosa 659 were obtained from the collection of the Department of Pharmaceutical Microbiology, Medical University of Warsaw, Poland and they were isolated from different biological materials taken from the patients hospitalized in the Warsaw Medical University hospitals. Antimicrobial activity was examined by the minimal inhibitory concentration (MIC) method under standard procedures provided by CLSI with some modifications. MIC was determined by the two-fold serial broth microdilution method in 96-well microtitration plates using Mueller–Hinton II broth medium (Becton Dickinson, Franklin Lakes, NJ, USA). The final inoculum of all studied bacteria was 10^6 CFU/mL (colony forming unit per milliliter). The stock solution of tested compounds was prepared in dimethyl sulfoxide (DMSO) and diluted to a maximum of 1% of solvent content with a sterile medium.

Assay [2] relates to S. epidermidis 4243. The assay is described as follows: MIC broth microdilution, clinical isolate. The note with it: Staphylococcus epidermidis; S. epidermidis 4243, clinical isolate, 19 h at 35 °C; read-out: minimal inhibitory concentration (MIC). Here is the method:
(§2) In the next stage of the experiment, 8 of 11 compounds were selected for a clinical strain activity evaluation against S. aureus, S. epidermidis, E. coli, K. pneumoniae, and P. aeruginosa.
as §1, with “Antimicrobial activity was examined by the minimal inhibitory concentration (MIC) method under standard procedures provided by CLSI with some modifications.” left out
(In general: In broth dilution the organism is exposed to a series of concentrations in liquid medium.)

Assay [3] has as its system P. aeruginosa 659. The assay is described as follows: MIC broth microdilution, clinical isolate. The following applies: Pseudomonas aeruginosa; P. aeruginosa 659, clinical isolate, 19 h at 35 °C; read-out: minimal inhibitory concentration (MIC). The protocol:
as §2
as §1, with “Antimicrobial activity was examined by the minimal inhibitory concentration (MIC) method under standard procedures provided by CLSI with some modifications.” left out

Assay [4] has as its system S. aureus T5591. The assay is described as follows: MIC broth microdilution, clinical isolate. The following applies: Staphylococcus aureus, 19 h at 35 °C, read-out: minimal inhibitory concentration (MIC). Here is the method:
as §2
as §1, with “Antimicrobial activity was examined by the minimal inhibitory concentration (MIC) method under standard procedures provided by CLSI with some modifications.” left out

The subject of assay [5] is E. coli 600. The assay is described as follows: MIC broth microdilution, clinical isolate. The following applies: Escherichia coli; E. coli 600, clinical isolate, 19 h at 35 °C; read-out: minimal inhibitory concentration (MIC). The protocol:
as §2
as §1, with “Antimicrobial activity was examined by the minimal inhibitory concentration (MIC) method under standard procedures provided by CLSI with some modifications.” left out

In assay [6] the test system is S. aureus T5592. The assay is described as follows: MIC broth microdilution, clinical isolate. The note with it: Staphylococcus aureus, 19 h at 35 °C, read-out: minimal inhibitory concentration (MIC). The protocol: as §2
as §1, with “Antimicrobial activity was examined by the minimal inhibitory concentration (MIC) method under standard procedures provided by CLSI with some modifications.” left out

In assay [7] the test system is S. epidermidis 5253. The assay is described as follows: MIC broth microdilution, clinical isolate. The following applies: Staphylococcus epidermidis; S. epidermidis 5253, clinical isolate, 19 h at 35 °C; read-out: minimal inhibitory concentration (MIC). The protocol:
as §2
as §1, with “Antimicrobial activity was examined by the minimal inhibitory concentration (MIC) method under standard procedures provided by CLSI with some modifications.” left out

For assay [8], the system named is K. pneumoniae 510. The assay is described as follows: MIC broth microdilution, clinical isolate. The note with it: Klebsiella pneumoniae; K. pneumoniae 510, clinical isolate, 19 h at 35 °C; read-out: minimal inhibitory concentration (MIC). Here is the method:
as §2
as §1, with “Antimicrobial activity was examined by the minimal inhibitory concentration (MIC) method under standard procedures provided by CLSI with some modifications.” left out

For assay [9], the system named is E. coli 520. The assay is described as follows: MIC broth microdilution, clinical isolate. The following applies: Escherichia coli; E. coli 520, clinical isolate, 19 h at 35 °C; read-out: minimal inhibitory concentration (MIC). The protocol: as §2
as §1, with “Antimicrobial activity was examined by the minimal inhibitory concentration (MIC) method under standard procedures provided by CLSI with some modifications.” left out

The mark [10] stands for this setting: 19 h, clinical (hospital) strains, read-out: MIC values, range.
Setting [11] is: all clinical Staphylococci panels: S. aureus (T5592; T5591) and S. epidermidis (5253; 4243), read-out: MIC values.
Where [12] appears, read: 19 h, against Gram-positive clinical strains, read-out: MIC values, range.

`CC1=C(C)C2(C)CC1(C)C1C(=O)N(Nc3nnnn3-c3cccc(C(F)(F)F)c3)C(=O)C12` (stereo not drawn) [Compound 1, 4,5,6,7-Tetramethyl-2-((1-(3-(trifluoromethyl)phenyl)-1H-tetrazol-5-yl)amino)-3a,4,7,7a-tetrahydro-1H-4,7-methanoisoindole-1,3(2H)-dione]: the MIC in assay [1] (setting [10]) is 0.8 to 3.2 µg/mL (≈ 1.79 to 7.17 µM); in assay [1] (setting [11]) it was 0.8 µg/mL (≈ 1.79 µM); in assay [2], 0.8 µg/mL (≈ 1.79 µM); in assay [3], 1.6 µg/mL (≈ 3.58 µM); in [4] it was 0.8 µg/mL (≈ 1.79 µM); in [5], 3.2 µg/mL (≈ 7.17 µM). Besides, the MIC in assay [6] worked out at 0.8 µg/mL (≈ 1.79 µM); in [7] it was 0.8 µg/mL (≈ 1.79 µM); in [8] it was 3.2 µg/mL (≈ 7.17 µM); in assay [9], 3.2 µg/mL (≈ 7.17 µM).
As for `CC(C)C12C=CC(C)(CC1)C1C(=O)N(Nc3nnnn3-c3ccc([N+](=O)[O-])cc3)C(=O)C12` (stereo not drawn) [Compound 8, 4-Isopropyl-7-methyl-2-((1-(4-nitrophenyl)-1H-tetrazol-5-yl)amino)-3a,4,7,7a-tetrahydro-1H-4,7-ethanoisoindole-1,3(2H)-dione], the MIC was 2 to 32 µg/mL (≈ 4.57 to 73.1 µM) in [1] (setting [12]); 16 µg/mL (≈ 36.6 µM) in [2]; > 256 µg/mL in [3]; 16 µg/mL (≈ 36.6 µM) in [4]; > 256 µg/mL in assay [5]; 16 µg/mL (≈ 36.6 µM) in assay [6]. Also, the MIC is 16 µg/mL (≈ 36.6 µM) in assay [7], > 256 µg/mL in [8] and > 256 µg/mL in assay [9].
Take `CC1=C(C)C2(C)CC1(C)C1C(=O)N(Nc3nnnn3-c3ccc([N+](=O)[O-])cc3)C(=O)C12` (stereo not drawn) [Compound 4, 4,5,6,7-Tetramethyl-2-((1-(4-nitrophenyl)-1H-tetrazol-5-yl)amino)-3a,4,7,7a-tetrahydro-1H-4,7-methanoisoindole-1,3(2H)-dione]: the MIC in assay [1] (setting [12]) was 2 to 32 µg/mL (≈ 4.72 to 75.6 µM); in assay [2] it was 32 µg/mL (≈ 75.6 µM); in [3], 256 µg/mL (≈ 605 µM); in [4], 32 µg/mL (≈ 75.6 µM); in assay [5], 256 µg/mL (≈ 605 µM); in [6] it was 16 µg/mL (≈ 37.8 µM). Besides, the MIC stood at 16 µg/mL (≈ 37.8 µM) in [7], 256 µg/mL (≈ 605 µM) in assay [8] and 256 µg/mL (≈ 605 µM) in assay [9].
On to `CC1=C(C)C2(C)CC1(C)C1C(=O)N(Nc3nnnn3-c3ccccc3)C(=O)C12` (stereo not drawn) [Compound 6, 4,5,6,7-Tetramethyl-2-((1-phenyl-1H-tetrazol-5-yl)amino)-3a,4,7,7a-tetrahydro-1H-4,7-methanoisoindole-1,3(2H)-dione], for which the MIC is 2 to 32 µg/mL (≈ 5.28 to 84.6 µM) in assay [1] (setting [12]); 4 µg/mL (≈ 10.6 µM) in assay [2]; 16 µg/mL (≈ 42.3 µM) in assay [3]; 4 µg/mL (≈ 10.6 µM) in [4]; 8 µg/mL (≈ 21.1 µM) in assay [5]; 4 µg/mL (≈ 10.6 µM) in assay [6]. The MIC came out at 4 µg/mL (≈ 10.6 µM) in assay [7], 16 µg/mL (≈ 42.3 µM) in assay [8] and 8 µg/mL (≈ 21.1 µM) in [9].
In the case of `CC1=C(C)C2(C)CC1(C)C1C(=O)N(Nc3nnnn3-c3ccccc3Cl)C(=O)C12` (stereo not drawn) [Compound 2, 2-((1-(2-Chlorophenyl)-1H-tetrazol-5-yl)amino)-4,5,6,7-tetramethyl-3a,4,7,7a-tetrahydro-1H-4,7-methanoisoindole-1,3(2H)-dione], the MIC is 0.8 to 3.2 µg/mL (≈ 1.94 to 7.75 µM) in assay [1] (setting [10]); 0.8 µg/mL (≈ 1.94 µM) in assay [1] (setting [11]); 0.8 µg/mL (≈ 1.94 µM) in assay [2]; 1.6 µg/mL (≈ 3.88 µM) in [3]; 0.8 µg/mL (≈ 1.94 µM) in assay [4]; 1.6 µg/mL (≈ 3.88 µM) in assay [5]. In addition, the MIC was 0.8 µg/mL (≈ 1.94 µM) in [6], 0.8 µg/mL (≈ 1.94 µM) in [7], 3.2 µg/mL (≈ 7.75 µM) in assay [8] and 3.2 µg/mL (≈ 7.75 µM) in assay [9].
Take `Cc1ccc(-n2nnnc2NN2C(=O)C3C(C2=O)C2(C(C)C)C=CC3(C)CC2)cc1` (stereo not drawn) [Compound 10, 4-Isopropyl-7-methyl-2-((1-(p-tolyl)-1H-tetrazol-5-yl)amino)-3a,4,7,7a-tetrahydro-1H-4,7-ethanoisoindole-1,3(2H)-dione]: the MIC in [1] (setting [12]) is 2 to 32 µg/mL (≈ 4.92 to 78.7 µM); in [2], 8 µg/mL (≈ 19.7 µM); in assay [3], 32 µg/mL (≈ 78.7 µM); in [4], 16 µg/mL (≈ 39.4 µM); in assay [5], 32 µg/mL (≈ 78.7 µM); in [6] it was 16 µg/mL (≈ 39.4 µM). Further, the MIC was found to be 16 µg/mL (≈ 39.4 µM) in [7], 32 µg/mL (≈ 78.7 µM) in [8] and 32 µg/mL (≈ 78.7 µM) in assay [9].
For `CC1=C(C)C2(C)CC1(C)C1C(=O)N(Nc3nnnn3-c3ccccc3Br)C(=O)C12` (stereo not drawn) [Compound 3, 2-((1-(2-Bromophenyl)-1H-tetrazol-5-yl)amino)-4,5,6,7-tetramethyl-3a,4,7,7a-tetrahydro-1H-4,7-methanoisoindole-1,3(2H)-dione], the MIC in [1] (setting [10]) is 0.8 to 3.2 µg/mL (≈ 1.75 to 7 µM); in assay [1] (setting [11]), 0.8 µg/mL (≈ 1.75 µM); in assay [2] it was 0.8 µg/mL (≈ 1.75 µM); in assay [3], 1.6 µg/mL (≈ 3.5 µM); in [4], 0.8 µg/mL (≈ 1.75 µM); in [5] it was 1.6 µg/mL (≈ 3.5 µM). Also, the MIC in assay [6] is 0.8 µg/mL (≈ 1.75 µM); in assay [7], 0.8 µg/mL (≈ 1.75 µM); in assay [8], 3.2 µg/mL (≈ 7 µM); in [9], 1.6 µg/mL (≈ 3.5 µM).
As to `CC(C)C12C=CC(C)(CC1)C1C(=O)N(Nc3nnnn3-c3ccccc3Br)C(=O)C12` (stereo not drawn) [Compound 9, 2-((1-(2-Bromophenyl)-1H-tetrazol-5-yl)amino)-4-isopropyl-7-methyl-3a,4,7,7a-tetrahydro-1H-4,7-ethanoisoindole-1,3(2H)-dione], the MIC was 2 to 32 µg/mL (≈ 4.24 to 67.9 µM) in assay [1] (setting [12]); 2 µg/mL (≈ 4.24 µM) in assay [2]; 16 µg/mL (≈ 33.9 µM) in assay [3]; 4 µg/mL (≈ 8.49 µM) in assay [4]; 8 µg/mL (≈ 17 µM) in assay [5]; 4 µg/mL (≈ 8.49 µM) in [6]. Besides, the MIC turned out to be 4 µg/mL (≈ 8.49 µM) in assay [7], 16 µg/mL (≈ 33.9 µM) in [8] and 8 µg/mL (≈ 17 µM) in assay [9].
